# Molecular target: Lysine-specific histone demethylase 1A (Homo sapiens, UniProt O60341)
# Test: Biochemical Assay: LANCE LSD1/KDM1A demethylase assay-10 μL of 1 nM LSD-1 enzyme (ENZO BML-SE544-0050) in the assay buffer (50 mM Tris, pH 7.5, 0.01% Tween-20, 25 mM NaCl, 5 mM DTT) were preincubated for 1 hour at 25° C. with 0.8 μL compound/DMSO dotted in black 384 well polystyrene plates. Reactions were started by addition of 10 μL of assay buffer containing 0.4 μM Biotin-labeled Histone H3 peptide substrate: ART-K(Mel)-QTARKSTGGKAPRKQLA-GGK(Biotin) SEQ ID NO: 1 (AnaSpec 64355) and incubated for 1 hour at 25° C. Reactions were stopped by addition of 10 μL 1×LANCE Detection Buffer (PerkinElmer CR97-100) supplemented with 1.5 nM Eu-anti-unmodified H3K4 Antibody (PerkinElmer TRF0404), and 225 nM LANCE Ultra Streptavidin (PerkinElmer TRF102) along with 0.9 mM Tranylcypromine-HCl (Millipore 616431). After stopping the reactions plates were incubated for 30 minutes and read on a PHERAstar FS plate reader (BMG Labtech).
row,SMILES,IC50
1,COC(=O)N(C)c1ccc(-c2c(-c3ccc(C#N)cc3)nc(N3CCC(N(C)C)CC3)n3ccnc23)cc1,< 0.05 µM
2,COC(=O)N(C)c1ccc(-c2c(-c3ccc(C#N)cc3)nc(N3CCC(N(C)C)CC3)n3ccnc23)cc1F,< 0.05 µM
3,COC(=O)N(C)c1cc(-c2c(-c3ccc(C#N)cc3)nc(OC[C@@H]3CCCN(C)C3)n3ccnc23)ccc1C,< 0.05 µM
